Data set [1] in a line: Solubility determination of irinotecan sucrosofate in water. In kind it is physicochemical. The settings on record: deionized water, 4-6° C., 22 hours. Here is the method: An amount of 1.64 g of irinotecan hydrochloride trihydrate was added to 160 mL of water acidified with 0.008 mL of 1 N HCl, and heated on a 65° C. water bath with stirring until the drug was dissolved. Five mL of 0.46 M (based on sulfate concentration) triethylammonium sucrosofate were added with intensive stirring, and stirred for five minutes more. […] The precipitate was separated by centrifugation, and the supernatant solution was discarded. The pellet was resuspended in five volumes of deionized water, and precipitated by centrifugation; this washing step was repeated two more times until the pH of the suspension was about 5.8. […] An aliquot of the product was solubilized in 1 N HCl and analyzed for irinotecan (by spectrophotometry at 365 nm in 70% aqueous isopropanol-0.1 N HCl) and for sulfate after hydrolysis in a diluted (1:4) perchloric acid using a barium sulfate turbidimetric assay. […] The samples were incubated with agitation at 4-6° C. for 22 hours, the solid material was removed by centrifugation for 10 min at 14000 g, and the supernatant fluid was analyzed for irinotecan by spectrophotometry.

The conditions of data set [2]: cited from earlier work.

The text below walks through data of US20230108934A1, “Stabilizing Camptothecin Pharmaceutical Compositions” (Ipsen Biopharm Ltd., priority 2015, published 2023).

SMILES strings stand for the structures. Read-outs that look alike come from different tables or passages of the source.

As for `CCc1c2c(nc3ccc(OC(=O)N4CCC(N5CCCCC5)CC4)cc13)-c1cc3c(c(=O)n1C2)COC(=O)[C@]3(O)CC` [irinotecan sucrosofate], the “concentration of irinotecan in solution” value in data set [1] (final drug salt concentration 0.93 mg/mL) is 58.9±0.90 micro-g/mL; in data set [1] (final drug salt concentration 1.85 mg/mL), 63.2±0.6 micro-g/mL; in data set [1] (final drug salt concentration 3.71 mg/mL), 63.4±1.3 micro-g/mL.

For the compound `CCc1c2c(nc3ccc(OC(=O)N4CCC(N5CCCCC5)CC4)cc13)-c1cc3c(c(=O)n1C2)COC(=O)[C@]3(O)CC` [irinotecan], the results for the “irinotecan in the more active lactone form” value in data set [2] (pH 6.0), in data set [2] (pH 6.5) and in data set [2] (pH 7.5) were “about 85%”, “about 65%” and “about 15%”, respectively.
